Data reported in US4683237A, “Fluoroalkyl esters of dihydrolysergic acid useful as 5HT2 receptor antagonists” (Eli Lilly and Company, priority 1985, dated 1987).
Structures can show the parent of a compound that is named as a salt.

What was measured:
5HT2 receptors [1] = molecular target: T1, 5HT2 receptors (Rattus norvegicus, UniProt P14842); assay: Antagonism of serotonin contraction in isolated rat external jugular vein (apparent antagonist dissociation constant); design: species or system Male Wistar rats; conditions: serotonin agonist, antagonist incubated one hour, 37° C., read-out: -log KB ± S.E. (apparent antagonist dissociation constant) (converted)
T1 construct: Contraction to serotonin was evaluated in the jugular vein since this tissue produces marked responses to serotonin in the absence of alpha receptors; from tissue; host or cells: external jugular vein of male Wistar rats
T1 sequence (P14842 whole entry): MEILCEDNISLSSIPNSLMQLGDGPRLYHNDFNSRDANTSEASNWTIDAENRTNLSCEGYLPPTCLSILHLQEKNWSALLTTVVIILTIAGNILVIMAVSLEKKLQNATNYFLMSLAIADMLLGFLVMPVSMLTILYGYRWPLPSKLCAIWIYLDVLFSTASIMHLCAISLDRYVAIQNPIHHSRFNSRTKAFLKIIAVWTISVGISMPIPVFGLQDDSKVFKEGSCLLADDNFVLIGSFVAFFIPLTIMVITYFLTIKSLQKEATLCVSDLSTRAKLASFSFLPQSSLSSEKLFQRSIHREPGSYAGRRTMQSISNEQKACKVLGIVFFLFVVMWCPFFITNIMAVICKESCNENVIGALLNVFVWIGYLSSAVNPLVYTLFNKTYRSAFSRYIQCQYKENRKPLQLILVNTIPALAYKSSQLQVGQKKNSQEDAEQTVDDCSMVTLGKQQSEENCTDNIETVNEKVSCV
Experimental: An initial optimum resting force of 1 and 4 g was applied to the jugular vein and aorta, respectively. […] Exp. Ther., 205, 400 (1978). Alpha receptor antagonist activity was evaluated in the aorta.
The -log KB ±S.E. value obtained for 1-fluoromehtyl-2-fluoroethyl 1-isopropyl-9,10-dihydrolysergate maleate was 8.97±0.22.

5HT2 receptors [2] = conditions: in words; mediated by 5HT2 receptors; Cohen I; cited from earlier work
[3] = test system: vascular alpha adrenergic, dopaminergic and histaminergic receptors; conditions: in words; Cohen I; cited from earlier work
5HT2 receptors [4] = conditions: in words; Garbrecht compounds; cited from earlier work

## CC(C)n1cc2c3c(cccc31)[C@H]1C[C@@H](C(=O)OC(CF)CF)CN(C)[C@@H]1C2 [1-fluoromethyl-2-fluoroethyl-1-isopropyl-9,10-dihydrolysergate maleate]
5HT2 receptors [1]
  Kb: 1.07 nM

## CC(O)C(C)OC(=O)[C@@H]1C[C@@H]2c3cccc4c3c(cn4C(C)C)C[C@H]2N(C)C1 (stereo partly drawn) [LY53857, 1-isopropyl-6-methyl-8β-(1-methyl-2-hydroxy)propoxycarbonyl-5R-ergoline]
5HT2 receptors [2]
  antagonism of vascular contraction to serotonin: potent antagonist of vascular contraction to serotonin
[3]
  affinity for vascular alpha adrenergic, dopaminergic and histaminergic receptors: minimal affinity
5HT2 receptors [4]
  peripheral serotonin antagonist activity against 5HT2 receptors: most active peripheral serotonin antagonist from Garbrecht
